Results as given in patent US8188078B2 (Sanofi-Aventis, priority 2007, dated 2012).

Columns and labels:
RON = RON (Homo sapiens, UniProt Q04912); test: Test B: HTRF RON test in 96-well format; type: biochemical
Method in brief: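 RON 5 nM pre-incubated 30 min at RT with compound (0.17 nM–10 μM final, 3% DMSO) in MOPS 10 mM pH 7, DTT, Tween 20. Reaction with biotinylated poly-(GAT) 1 μg/ml, ATP 10 μM, MgCl2 5 mM, 30 min RT. Eu-anti-pTyr/streptavidin-XL665 HTRF, 665/620 ratio gives % inhibition, IC50.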

MET = target: T1, MET (Homo sapiens, UniProt P08581); test: Test C: inhibition of the autophosphorylation of MET, ELISA technique (pppY1230, 1234, 1235), MKN45 cells; type: cell-based
T1 construct: endogenous in cells; host or cells: MKN45 cells
T1 sequence (P08581 25-1390): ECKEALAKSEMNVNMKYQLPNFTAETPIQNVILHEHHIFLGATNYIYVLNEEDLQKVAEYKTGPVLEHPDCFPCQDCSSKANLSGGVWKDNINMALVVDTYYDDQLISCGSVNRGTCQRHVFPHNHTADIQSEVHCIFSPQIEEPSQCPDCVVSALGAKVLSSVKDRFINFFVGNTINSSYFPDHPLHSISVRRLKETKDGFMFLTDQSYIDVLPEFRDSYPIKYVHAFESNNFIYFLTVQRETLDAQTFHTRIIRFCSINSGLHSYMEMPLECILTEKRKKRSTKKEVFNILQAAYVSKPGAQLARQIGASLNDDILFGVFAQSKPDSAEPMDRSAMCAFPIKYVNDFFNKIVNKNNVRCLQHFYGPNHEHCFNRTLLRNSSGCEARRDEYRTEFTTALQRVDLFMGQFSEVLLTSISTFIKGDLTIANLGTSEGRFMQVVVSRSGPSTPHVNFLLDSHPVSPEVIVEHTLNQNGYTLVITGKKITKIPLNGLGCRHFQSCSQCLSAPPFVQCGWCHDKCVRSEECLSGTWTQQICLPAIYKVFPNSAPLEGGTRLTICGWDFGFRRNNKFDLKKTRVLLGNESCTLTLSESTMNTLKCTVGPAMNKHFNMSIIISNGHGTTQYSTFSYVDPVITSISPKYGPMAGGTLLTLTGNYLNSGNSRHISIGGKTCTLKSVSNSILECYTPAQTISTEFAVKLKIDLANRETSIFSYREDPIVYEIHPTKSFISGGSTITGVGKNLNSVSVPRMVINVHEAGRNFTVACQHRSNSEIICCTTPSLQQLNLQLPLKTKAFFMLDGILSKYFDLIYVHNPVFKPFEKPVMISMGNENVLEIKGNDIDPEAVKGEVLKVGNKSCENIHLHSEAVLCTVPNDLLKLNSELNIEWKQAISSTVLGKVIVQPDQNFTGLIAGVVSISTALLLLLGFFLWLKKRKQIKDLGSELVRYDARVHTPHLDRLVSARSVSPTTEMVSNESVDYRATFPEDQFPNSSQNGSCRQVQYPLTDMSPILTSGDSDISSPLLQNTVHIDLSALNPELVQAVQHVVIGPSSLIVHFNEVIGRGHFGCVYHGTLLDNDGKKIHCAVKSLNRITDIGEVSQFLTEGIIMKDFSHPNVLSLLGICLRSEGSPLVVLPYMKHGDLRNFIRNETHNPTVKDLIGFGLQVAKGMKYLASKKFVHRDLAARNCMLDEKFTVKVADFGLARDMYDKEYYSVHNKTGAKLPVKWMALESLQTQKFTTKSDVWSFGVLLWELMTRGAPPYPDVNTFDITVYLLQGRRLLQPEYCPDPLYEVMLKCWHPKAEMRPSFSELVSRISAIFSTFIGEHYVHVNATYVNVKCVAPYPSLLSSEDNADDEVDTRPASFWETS
Method in brief: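 MKN45 cells adhered 24 h, then treated 1 h with compound at 6 concentrations in duplicate, final range 10000 to 30 nM. Lysates assayed by phospho-MET (pY1230/1234/1235) sandwich ELISA with HRP chromogen read at 450 nm.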

Chain of RON (Q04912 25-1400): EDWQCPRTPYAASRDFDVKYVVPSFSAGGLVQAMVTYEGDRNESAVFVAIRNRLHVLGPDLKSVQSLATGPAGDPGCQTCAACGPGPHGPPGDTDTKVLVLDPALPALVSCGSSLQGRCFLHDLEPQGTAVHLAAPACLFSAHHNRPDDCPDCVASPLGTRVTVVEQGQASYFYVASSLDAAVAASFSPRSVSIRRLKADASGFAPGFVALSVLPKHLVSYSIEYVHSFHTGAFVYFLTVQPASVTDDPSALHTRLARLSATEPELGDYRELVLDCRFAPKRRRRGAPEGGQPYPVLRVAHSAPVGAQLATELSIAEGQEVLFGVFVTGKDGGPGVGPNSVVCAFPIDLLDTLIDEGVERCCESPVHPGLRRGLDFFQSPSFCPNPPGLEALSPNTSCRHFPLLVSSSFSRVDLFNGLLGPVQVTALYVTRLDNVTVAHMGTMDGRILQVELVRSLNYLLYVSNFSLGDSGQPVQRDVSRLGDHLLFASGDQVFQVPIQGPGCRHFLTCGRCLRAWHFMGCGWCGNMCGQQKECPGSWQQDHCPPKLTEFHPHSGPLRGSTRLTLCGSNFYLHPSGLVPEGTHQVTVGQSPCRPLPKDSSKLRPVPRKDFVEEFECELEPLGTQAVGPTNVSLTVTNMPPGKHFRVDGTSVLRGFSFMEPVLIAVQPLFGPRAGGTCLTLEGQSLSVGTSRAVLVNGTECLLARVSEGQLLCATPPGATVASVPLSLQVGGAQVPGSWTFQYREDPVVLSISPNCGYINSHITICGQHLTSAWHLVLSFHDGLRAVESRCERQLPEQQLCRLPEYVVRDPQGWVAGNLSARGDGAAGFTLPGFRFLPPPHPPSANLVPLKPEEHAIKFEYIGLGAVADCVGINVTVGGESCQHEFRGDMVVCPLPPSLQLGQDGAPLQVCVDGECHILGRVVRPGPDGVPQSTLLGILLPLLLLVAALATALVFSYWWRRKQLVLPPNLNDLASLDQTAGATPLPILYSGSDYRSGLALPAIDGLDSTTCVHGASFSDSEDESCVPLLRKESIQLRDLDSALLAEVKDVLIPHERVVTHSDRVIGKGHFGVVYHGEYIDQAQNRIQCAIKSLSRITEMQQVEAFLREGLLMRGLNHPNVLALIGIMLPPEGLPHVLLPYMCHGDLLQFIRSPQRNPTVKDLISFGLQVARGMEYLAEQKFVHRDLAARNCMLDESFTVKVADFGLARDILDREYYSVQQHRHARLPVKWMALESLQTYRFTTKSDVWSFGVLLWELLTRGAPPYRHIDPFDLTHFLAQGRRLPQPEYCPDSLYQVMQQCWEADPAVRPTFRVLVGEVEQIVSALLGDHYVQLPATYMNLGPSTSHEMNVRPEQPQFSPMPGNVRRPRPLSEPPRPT

CC(Oc1cc2sc(NC(=O)NCCN3CCN(C)CC3)nc2cc1F)c1c(F)ccc(Cl)c1Cl (single isomer, unassigned) [Example 116, 1-{6-[(1R*)-1-(2,3-dichloro-6-fluorophenyl)ethoxy]-5-fluoro-1,3-benzothiazol-2-yl}-3-[2-(4-methylpiperazin-1-yl)ethyl]urea]
IC50 (RON): < 500 nM | IC50 (MET): < 500 nM

CNCCCNC(=O)Nc1nc2cc(F)c(OC(C)c3c(Cl)ccc(F)c3Cl)cc2s1 (stereo not shown) [Example 127, 1-{6-[1-(2,6-dichloro-3-fluorophenyl)ethoxy]-5-fluoro-1,3-benzothiazol-2-yl}-3-[3-(methylamino)propyl]urea]
IC50 (RON): 500 to 10000 nM | IC50 (MET): < 500 nM

CC(Oc1cc2sc(NC(=O)NCCN3CCOCC3)nc2cc1Cl)c1c(Cl)ccc(F)c1Cl (stereo not shown) [Example 106, 1-{5-chloro-6-[1-(2,6-dichloro-3-fluorophenyl)ethoxy]-1,3-benzothiazol-2-yl}-3-[2-(morpholin-4-yl)ethyl]urea]
IC50 (RON): 500 to 10000 nM | IC50 (MET): 500 to 10000 nM

{6-[1-(2,6-dichloro-3-fluorophenyl)ethoxy]-5-fluoro-1,3-benzothiazol-2-yl}2-(pyrrolidin-1-yl)ethyl carbamate [Example 73]
IC50 (RON): 500 to 10000 nM | IC50 (MET): 500 to 10000 nM

CC(Oc1ccc2nc(NC(=O)NCCCN3C(C)CCCC3C)sc2c1)c1c(Cl)ccc(F)c1Cl (stereo not shown) [Example 47, 1-{6-[1-(2,6-dichloro-3-fluorophenyl)ethoxy]-1,3-benzothiazol-2-yl}-3-[3-(2,6-dimethylpiperidin-1-yl)propyl]urea]
IC50 (RON): 500 to 10000 nM | IC50 (MET): 500 to 10000 nM
